The target of this assay is human Factor Xa (Homo sapiens, UniProt P00742). As to the kind of experiment: In Vitro Enzyme Inhibitor Assay (Factor Xa inhibitory activity). It counts as biochemical. The settings on record: human Factor Xa 0.5-5 nM, pH 8, 150 μM zinc chloride, 1 hour preincubation at room temperature, substrate MesOC-Norleu-Gly-Arg-pNA; read-out: Apparent inhibition constants (Ki). How it is done:
The following represents an assay for determining the Factor Xa inhibitory activity of compounds of Formula I.
Apparent inhibition constants (Ki) were calculated from the enzyme progress curves using standard mathematical models.
human Factor Xa, sequence (P00742 235-488 limits assumed): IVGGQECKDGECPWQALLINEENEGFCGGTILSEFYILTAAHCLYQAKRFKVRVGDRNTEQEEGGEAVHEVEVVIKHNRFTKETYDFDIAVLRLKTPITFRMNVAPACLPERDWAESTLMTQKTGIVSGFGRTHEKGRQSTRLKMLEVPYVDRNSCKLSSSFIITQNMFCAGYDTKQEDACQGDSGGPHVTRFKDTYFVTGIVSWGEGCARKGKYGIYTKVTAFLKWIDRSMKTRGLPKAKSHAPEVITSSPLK
human Factor Xa, sequence (P00742 41-179 partner limits assumed): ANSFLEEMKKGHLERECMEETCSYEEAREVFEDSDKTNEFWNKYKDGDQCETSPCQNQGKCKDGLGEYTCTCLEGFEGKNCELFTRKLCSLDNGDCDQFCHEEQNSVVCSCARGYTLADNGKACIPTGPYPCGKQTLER
In the case of “6-(5-amidino-1H-benzimidazol-2-yl)-N-(2-morpholin-4-ylethyl)pyridine-5-carboxamide [Compound 69]”, the Ki came out at 40 nM.
As for “6-(5-amidino-1H-benzimidazol-2-yl)-N-[2-(3,4-dichlorophenyl)ethyl]pyridine- 5-carboxamide [Compound 88]”, the Ki is 6 nM.
As to “6-(5-amidino-1H-benzimidazol-2-yl)-N-[2-(4-methylphenyl)ethyl]pyridine-5-carboxamide [Compound 86]”, the Ki turned out to be 8 nM.
To `CCCCc1ccc(-c2nc3cc(C(=N)N)ccc3[nH]2)nc1` [Compound 1] belongs 3 nM; to `Cc1c(-c2nc3cc(C(=N)N)ccc3[nH]2)ncn1Cc1ccccc1` [Compound 16, 2-(5-methyl-1-benzyl-1H-imidazol-4-yl)-1H-benzimidazole-5-carboxamidine], 8 nM; to `N=C(N)c1ccc2[nH]c(-c3nccn3Cc3ccccc3)nc2c1` [Compound 17, 2-(1-benzyl-1H-imidazol-2-yl)-1H-benzimidazole-5-carboxamidine], 4 nM.
To `CCCn1cnc(-c2nc3cc(C(=N)N)ccc3[nH]2)c1C` [Compound 20, 2-(5-methyl-1-propyl-1H-imidazol-4-yl)-1H-benzimidazole-5-carboxamidine] belongs 7 nM; to `CCCCn1ccnc1-c1nc2cc(C(=N)N)ccc2[nH]1` [Compound 27, 2-(1-butyl-1H-imidazol-2-yl)-1H-benzimidazole-5-carboxamidine], 5 nM.
With `CCOC(=O)Cn1ccnc1-c1nc2cc(C(=N)N)ccc2[nH]1` [Compound 33, ethyl 2-(5-amidino-1H-benzimidazol-2-yl)imidazol-1-ylacetate], the Ki turned out to be 5 nM.
Take `Cc1c(-c2nc3cc(C(=N)N)ccc3[nH]2)ncn1CCCN1C(=O)c2ccccc2C1=O` [Compound 36, 2-{1-[3-(1,3-dioxo-1,3-dihydroisoindol-2-yl)propyl]-5-methyl-1H-imidazol-4-yl}-1H-benzimidazole-5-carboxamidine]: the Ki is 5 nM.
To `N=C(N)c1ccc2[nH]c(-c3nccn3CCCCN3C(=O)c4ccccc4C3=O)nc2c1` [Compound 39, 2-{1-[4-(1,3-dioxo-1,3-dihydroisoindol-2-yl)butyl]-1H-imidazol-2-yl}-1H-benzimidazole-5-carboxamidine] belongs 6 nM; to `COc1ccc(CCNC(=O)c2ccnc(-c3nc4cc(C(=N)N)ccc4[nH]3)c2)cc1` [Compound 50, 6-(5-amidino-1H-benzimidazol-2-yl)-N-[2-(4-methoxyphenyl)ethyl]pyridine-4-carboxamide], 10 nM.
Take `COc1ccc(CCNC(=O)c2ccc(-c3nc4cc(C(=N)N)ccc4[nH]3)nc2)cc1Br` [Compound 57]: the Ki amounted to 2 nM.
To `N=C(N)c1ccc2[nH]c(-c3nccn3CC(=O)NCCc3ccc(Cl)cc3)nc2c1` [Compound 90, 2-(5-amidino-1H-benzimidazol-2-yl)imidazol-1-yl-N-[2-(4-chlorophenyl)ethyl]acetamide] belongs 3 nM; to `N=C(N)c1ccc2[nH]c(-c3nccn3CC(=O)NCCc3ccc(O)cc3)nc2c1` [Compound 95, 2-(5-amidino-1H-benzimidazol-2-yl)imidazol-1-yl-N-[2-(4-hydroxyphenyl)ethyl]acetamide], 6 nM; to `N=C(N)c1ccc2[nH]c(-c3nccn3CC(=O)NCCc3cccc4ccccc34)nc2c1` [Compound 96, 2-(5-amidino-1H-benzimidazol-2-yl)imidazol-1-yl-N-(2-naphth-1-ylethyl)acetamide], 30 nM.
Regarding `N=C(N)c1ccc2[nH]c(-c3nccn3CCCC(=O)N3CCOCC3)nc2c1` [Compound 98, 2-[1-(3-morpholin-4-ylcarbonylpropyl)-1H-imidazol-2-yl]-1H-benzimidazole-5-carboxamidine], the Ki was 2 nM.
To `N=C(N)c1ccc2[nH]c(-c3nccn3CCCC(=O)NCCc3ccc(Cl)cc3)nc2c1` [Compound 100, 4-[2-(5-amidino-1H-benzimidazol-2-yl)imidazol-1-yl]-N-[2-(4-chlorophenyl)ethyl]butyramide] belongs 6 nM.
